Target: T1, renin (Homo sapiens, UniProt P00797)
T1 sequence (P00797 67-406): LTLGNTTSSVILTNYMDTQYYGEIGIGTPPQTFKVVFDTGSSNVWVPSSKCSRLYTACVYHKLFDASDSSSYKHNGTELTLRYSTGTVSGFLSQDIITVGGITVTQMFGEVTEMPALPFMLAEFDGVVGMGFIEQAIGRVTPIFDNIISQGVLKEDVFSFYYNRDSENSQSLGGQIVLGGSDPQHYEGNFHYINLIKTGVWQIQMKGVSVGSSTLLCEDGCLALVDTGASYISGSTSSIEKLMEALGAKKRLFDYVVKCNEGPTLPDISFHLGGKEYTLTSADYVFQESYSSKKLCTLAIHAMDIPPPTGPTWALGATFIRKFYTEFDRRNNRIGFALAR
Experiment: in vitro renin inhibitory activity, radioimmunoassay for angiotensin I
Type: biochemical
Conditions: @ 1 × 10^-8 (molar); 2 hours at 37°
Method: The effectiveness of the aforementioned compounds is determined by a test for in vitro renin inhibitory activity. This activity is determined by a standard radioimmunoassay for angiotensin I. ln this assay the enzyme, renin, incubated for 2 hours at 37° in the presence of a substrate, angiotensinogen, generates the product, angiotensin I. Test compounds are added to the incubation mixture. Relative activity is reported as the percent inhibition at the specified molar concentration or as the IC50, which is the molar concentration of test compound causing a 50% inhibition of the renin activity.

In Vitro Activity, percent inhibition [%] | SMILES
21 | CC(C)C[C@H](O)[C@H](O)[C@H](CC1CCCCC1)NC(=O)CC1OC1[C@H](Cc1ccccc1)NC(=O)OC(C)(C)C (stereo partly drawn)
1 | CC(C)C[C@H](O)[C@H](O)[C@H](CC1CCCCC1)NC(=O)CCC(=O)[C@H](Cc1ccccc1)NC(=O)OCc1ccccc1 [ZPHE.psi.[COCH2 ]GLYCAD, Z-PHE.PSI.[COCH2]GLY-CAD]

Same assay, conditions: @ 3 × 10^-8 (molar); 2 hours at 37°

In Vitro Activity, percent inhibition [%] | SMILES
1 | CC(C)C[C@H](O)[C@H](O)[C@H](CC1CCCCC1)NC(=O)C/C=C/[C@H](Cc1ccccc1)NC(=O)OC(C)(C)C [BOCPHE.psi.[CHCH]GLYCAD, BOC-PHE.PSI.[E-CH=CH]GLY-CAD]

Same assay, conditions: @ 10^-6 (molar; also 1 × 10^-6); 2 hours at 37°

In Vitro Activity, percent inhibition [%] | SMILES
45 | CC(C)C[C@H](O)[C@H](O)[C@H](CC1CCCCC1)NC(=O)C(N)CC(O)[C@H](Cc1ccccc1)NC(=O)OC(C)(C)C (single isomer, unassigned) [drawing 42, BOC-PHE.PSI.[CHOHCH2 ]CH(NH2)CO-CAD]
26 | CC(C)C[C@H](O)[C@H](O)[C@H](CC1CCCCC1)NC(=O)C(N)CC(O)[C@H](Cc1ccccc1)NC(=O)OC(C)(C)C (single isomer, unassigned) [drawing 43, BOC-PHE.PSI.[CHOHCH2 ]CH(NH2)CO-CAD]
28 | CC(C)C[C@H](O)[C@H](O)[C@H](CC1CCCCC1)NC(=O)CCC(O)[C@@H](N)Cc1ccccc1 (stereo partly drawn) [PHE.psi.[CHOHCH2 ]GLYCAD]

Same assay, conditions: renin incubated 2 hours at 37° with angiotensinogen; values marked * = IC50; read-out: In Vitro Activity, IC50 (molar concentration causing a 50% inhibition of the renin activity)

IC50 [nM] | SMILES
30 | CC(C)C[C@H](O)[C@H](O)[C@H](CC1CCCCC1)NC(=O)CCC(O)[C@H](Cc1ccccc1)NC(=O)OC(C)(C)C (mixture of isomers) [BOCPHE.psi.[CHOHCH2 ]GLYCAD (Mixture of Diastereomers), BOC-PHE.PSI.[CHOHCH2 ]GLY-CAD (Mixture of Diastereomers)]
240 | CC(C)C[C@H](O)[C@H](O)[C@H](CC1CCCCC1)NC(=O)CCC(O)[C@H](Cc1ccccc1)NC(=O)OCc1ccccc1 (mixture of isomers) [ZPHE.psi.[CHOHCH2 ]GLYCAD (Mixture of Diastereomers), Z-PHE.PSI.[CHOHCH2 ]GLY-CAD (Mixture of Diastereomers)]
15 | CC(C)C[C@H](O)[C@H](O)[C@H](CC1CCCCC1)NC(=O)CCC(O)[C@H](Cc1ccccc1)NC(=O)OC(C)(C)C (single isomer, unassigned) [BOCPHE.psi.[CHOHCH2 ]GLYCAD (Slow Eluting Diastereomer), BOC-PHE.PSI.[CHOHCH2 ]GLY-CAD (Slow Isomer)]
2.3 | CC(C)C[C@H](O)[C@H](O)[C@H](CC1CCCCC1)NC(=O)CCC(O)[C@H](Cc1ccccc1)NS(=O)(=O)N1CCOCC1 (single isomer, unassigned) [SMOPHE.psi.[CHOHCH2 ]GLYCAD (Isomer A), SMO-PHE.PSI.[CHOHCH2 ]GLY-CAD (Isomer A)]
17 | CC(C)C[C@H](O)[C@H](O)[C@H](CC1CCCCC1)NC(=O)CCC(O)[C@H](Cc1ccccc1)NS(=O)(=O)N1CCOCC1 (single isomer, unassigned) [SMOPHE.psi.[CHOHCH2 ]GLYCAD (Isomer B), SMO-PHE.PSI.[CHOHCH2 ]GLY-CAD (Isomer B)]
200 | CC(C)C[C@H](O)[C@H](O)[C@H](CC1CCCCC1)NC(=O)CCC(O)[C@H](Cc1ccccc1)NC(=O)OCc1ccccc1 (single isomer, unassigned) [ZPHE.psi.[CHOHCH2 ]GLYCAD (Slow Eluting Diastereomer), Z-PHE.PSI.[CHOHCH2 ]GLY-CAD (Slow Isomer)]
2600 | CC(C)C[C@H](O)[C@H](O)[C@H](CC1CCCCC1)NC(=O)CNC[C@H](Cc1ccccc1)NS(=O)(=O)N1CCOCC1 [SMOPHE.psi.[CH2 NH]GLYCAD, SMO-PHE.PSI.[CH2 NH]GLY-CAD]
25 | CC(C)C[C@H](O)[C@H](O)[C@H](CC1CCCCC1)NC(=O)C=CC(O)[C@H](Cc1ccccc1)NS(=O)(=O)N1CCOCC1 (stereo partly drawn) [SMOPHE.psi.[CHOHCHCHCO]CAD, SMO-PHE.PSI.[CHOHCH=CHCO]CAD]
87 | CC(C)C[C@H](O)[C@H](O)[C@H](CC1CCCCC1)NC(=O)CCC(=O)[C@H](Cc1ccccc1)NS(=O)(=O)N1CCOCC1 [SMOPHE.psi.[COCH2 ]GLYCAD, SMO-PHE.PSI.[COCH2]GLY-CAD]
